Test results published in patent US20260097029A1, “Tetrahydroquinoline Compounds As Antitumor Agents” (priority 2022, published 2026).
Where two headings read alike, the source gives them in different places.

Key:
Assay type in all cases: cell-based
[1] = test system: ALT-positive, telomerase-positive, ALT- and telomerase-positive, and normal cell lines; test: Proliferation and cell death across panel of ALT-positive, telomerase-positive, ALT- and telomerase-positive and normal cell lines; settings: for toxicity across cell lines (FIG. 5): 0-25 μM, different cell lines
Protocol: (§1) U2OS cells were treated with compounds 1, 2, 14, and 32 at concentrations of 0, 0.625, 1.25, 2.5, 5, 10, 15, 20 and 25 μM. Cell proliferation (confluency) and cytotoxicity (CellTox™ Green confluency) were assessed using the IncuCyte® live cell imaging platform. Cell death was calculated as a percentage of overall confluency, using CellTox™ Green confluency as a percentage of total cell confluence. Cell toxicity measurements were capped at the time point at which cells reached complete confluency. This was to account for cell death due to over-confluency of cells, rather than as a result of compounds' effects. The same experiments were also performed on a list of ALT-positive, telomerase-positive, ALT- and telomerase-positive, and normal cell lines. For the ALT-positive cell lines GM847, SK—N—FI, HuO9, Saos-2, CAL72, IIICF/c, and HS729 were employed. For the telomerase-positive cells HCT116, HeLa, HT1080, SK—N—Be2, and SK—N-AS, and KELLY were used. For the ALT-positive/telomerase-positive and mortal cell strains GM847 hTERT, MRC-5, and IMR-90 were employed.

U2OS cells [2] = test: U2OS cell proliferation (confluency), IncuCyte live cell imaging; settings: for IC50: confluency, read-out: IC50 (concentration of drug that inhibits 50% of cell growth)
Protocol: as §1

U2OS cells [3] = test: U2OS cytotoxicity / cell death (CellTox Green confluency), IncuCyte; settings: Homo sapiens, read-out: EC50 (concentration that effectively causes 50% of cell death)
Protocol: as §1

FANCM-BTR interaction = biological target: T1, FANCM-BTR interaction (Homo sapiens, UniProt Q8IYD8+Q9H9A7); test: Co-immunoprecipitation with RMI1 antibody in U2OS cells, western blot; settings: treatment at the IC50 concentration, 72 hours
T1 construct: endogenous in cells; host or cells: U2OS
Protocol: To determine whether the compounds disrupt the FANCM-BTR interaction, co-immunoprecipitation experiments using the RMI1 antibody were performed in the presence and absence of compounds 1, 2, 14, 32, and the already reported compound PIP-199 treatments as well as the scambled, siFANCM and DMSO. This method provides information indicating the direct binding of proteins and is highly specific and simple to perform. U2OS cells were seeded at 50% confluency in 150 cm^2 flasks (BD Falcon). After 24 hours, cells were treated with scrambled, siFANCM and DMSO (0.3%, determined by the maximal DMSO concentration present in drugs) treatments, and 2, 14, 32, PIP-199 treatments at their IC50 concentrations. After 72 hours, cells were washed once with warm PBS, trypsinised for 5 minutes at 37° C., resuspended in media and counted using a Beckman Coulter cell counter. Cells were collected in pellets in Protein Lobind tubes (Eppendorf) by centrifugation at 200×g at 4° C. and supernatant was discarded. […]
The Dynabeads®-Ab-protein complex was washed three times using 200 μL ice cold Lysis Buffer B for each wash. […] The eluates were analysed by western blot and the data was quantitated using ImageJ software (National Institutes of Health). Eluates were expressed as a percentage of their respective lysates to show relative differences between treatments.

IC50 (U2OS cells [2]; Homo sapiens, U2OS) [µM] | IC50 (U2OS cells [2]) [µM] | FANCM levels co-immunoprecipitated with RMI1 (FANCM-BTR interaction) | SMILES | toxicity across cell lines (FIG. 5) [1] | comparison of IC50 and EC50 values across the panel of cell lines ([1]; ALT-positive vs telomerase-positive, ALT/telomerase-positive and mortal cell lines) | inhibition of U2OS cell viability (U2OS cells [2]; preliminary cell-based assays) | EC50 (U2OS cells [3]) [nM]
– | – | – | CCN1CCCc2cc(CN(C3CCCC3)S(=O)(=O)c3cccc([N+](=O)[O-])c3)ccc21 [Compound 1, N-cyclopentyl-N-((1-ethyl-1,2,3,4-tetrahydroquinolin-6-yl)methyl)-3-nitrobenzenesulfon-amide] | concentration-dependent toxicity that is partly selective to the ALT cell lines | – | – | –
– | – | – | CCN1CCCc2cc(CN(C3CCCC3)S(=O)(=O)c3ccc(CCOC)cc3)ccc21 [Compound 14, N-cyclopentyl-N-((1-ethyl-1,2,3,4-tetrahydroquinolin-6-yl)methyl)-4-(2-methoxy-ethyl)benzenesulfonamide] | concentration-dependent toxicity that is partly selective to the ALT cell lines | – | – | –
15.5 | 15.5 | decrease in FANCM levels | CCN1CCCc2cc(CN(C3CCCC3)S(=O)(=O)c3ccc(NCc4c[nH]cn4)cc3)ccc21 [Compound 32, 4-(((1H-imidazol-4-yl)methyl)amino)-N-cyclopentyl-N-((1-ethyl-1,2,3,4-tetrahydroquinolin-6-yl)methyl)benzenesulfonamide] | – | selective induction of ALT-cell death | shows inhibition of U2OS cell viability | 1360
